Test results taken from PubChem BioAssay AID2060601 (Molecular Pharmacology Branch, DTP, NCI, 2025).
Several values for one entry are separate records, joined by “and”; a condition that tells them apart may be missing. Identical values can stand only once.

System: 874868-142-R-J2-PDC complex spheroids, growth % test/control
Test: Anticancer human tumor 874868-142-R-J2-PDC patient-derived head and neck squamous carcinoma cell line growth inhibition [CLK]
Details: for viability, T/C: stronger effect = lower value
From the text: A high-throughput screen of multi-cell type tumor spheroids was designed to identify active combinations of […] and targeted small molecules. Complex spheroids include a stromal component modeled by human endothelial cells (HUVEC) and fibroblasts modeled by human mesenchymal stem cells (MSCs). The concentration ranges selected for each drug and investigational agent were based upon clinically achievable concentrations if the clinical Cmax of the agent was known.
Compounds. The drugs and investigational agents: cirtuvivint (SM08502; NSC835563), CC-671 (NSC850746), vemurafenib (NSC761431), tapotoclax (NSC804041), sotorasib (NSC818433), adagrasib (NSC831453), MRTX-1133 (NSC836407), BAY2416964 (NSC825713), copanlisib (NSC816437), inavolisib (NSC800729), abemaciclib (NSC768073), osimertinib (NSC779217), entinostat (NSC756642), eltanexor (KPT-8602, NSC794443), venetoclax (NSC766270), ceralasertib (NSC777638), bortezomib (NSC756655), olaparib (NSC753686), talazoparib (NSC767125), alisertib (NSC759677), peposertib (NSC802822), gemcitabine (NSC613327), 5-fluorouracil (NSC19893), SN-38 (NSC673596), oxaliplatin (NSC266046), paclitaxel (NSC125973), and doxorubicin (NSC123127), were obtained from the National Cancer Institute (NCI) Developmental Therapeutics Program Chemical Repository. The FDA-approved anticancer drug set is available from the Developmental Therapeutics Program at https://dtp.cancer.gov/organization/dscb/obtaining/available plates.htm. […] The stock solutions were prepared in dimethyl sulfoxide (DMSO, Sigma-Aldrich, St. Louis, MO, cat. D2650), except for the platinum complexes which were prepared in saline (Quality Biological, Gaithersburg, MD, cat. 114-055-101), at 800-fold the tested concentration and stored at -70 degrees C prior to their use. All drugs and investigational agents were tested over a range starting from a high concentration at or near the clinical Cmax and decreasing in half-log increments. If the clinical Cmax for an agent had not been determined, the highest concentration tested was 10 microM.
Cell Culture. All cells were maintained in an incubator at 37 degrees C and 5% CO2 with 95% humidity. The PDC lines were cultured according to standard operating procedures established by the NCI PDMR. Briefly, all PDCs were thawed and cultured in Matrigel-coated flasks prepared with a working solution of 1X Ham's F-12 nutrient mix, without supplementation (Invitrogen, Waltham, MA, cat. 11765054), 100 U/mL penicillin-streptomycin (Invitrogen, cat. 15140122), and 2.5% Matrigel (Corning Inc., Corning, NY, cat. 354248) for the first three passages. The 947758-054-R-J2-PDC line was cultured in 6B/Colon 1A media, which includes advanced DMEM/F-12 (Thermo Fisher Scientific, cat. 12634028), 10 mM HEPES (Thermo Fisher Scientific, cat. 15630080), 1X GlutaMAX supplement (Thermo Fisher Scientific, cat. 35050061), 0.1 mg/mL primocin (InvivoGen, cat. ant-pm-2), 10% defined fetal bovine serum, heat inactivated (HyClone Laboratories Inc., cat. SH30070.03HI), 1.25 mM N-Acetyl-L-cysteine (Sigma-Aldrich, cat. A9165), 10 mM nicotinamide (Sigma-Aldrich, cat. N0636), 1X B-27 supplement (Thermo Fisher Scientific, cat. 17504044), 1X N-2 supplement (Thermo Fisher Scientific, cat. 17502048), and 10 microM Y-27632 dihydrochloride (Tocris Bioscience, cat. 1254). The 876862-298-R-J1-PDC was cultured in 6E media, which includes all 6B/Colon 1A media components plus 50% L-WRN conditioned media (ATCC, cat. CRL-3276), 50 ng/mL recombinant human EGF recombinant protein (hEGF; Thermo Fisher Scientific, cat. PHG0311), 10 ng/mL recombinant human fibroblast growth factor 10 (hGFG-10; PeproTech, cat. 100-26), 1 ng/mL recombinant human fibroblast growth factor 2 (hFGF-2; PeproTech, cat. 100-18B), and 1 µM prostaglandin E2 (PGE2; Tocris, cat. 2296). The 227483-062-R1-J1-PDC line was cultured in Panc media, containing all 6E components except hFGF-2, with the addition of 500 nM SB-431542 (Selleckchem, cat. S1067) and 10 nM gastrin (Tocris, cat. 3006). […]
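Also: spheroids exposed to the compounds for 7 days.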

## CCN1CCN(Cc2ccc(Nc3ncc(F)c(-c4cc(F)c5nc(C)n(C(C)C)c5c4)n3)nc2)CC1
Compound 0.00316 µM
  viability, T/C: 107% and 111%
Compound 0.01 µM
  viability, T/C: 83.9% and 104%
Compound 0.0316 µM
  viability, T/C: 89.7% and 115%
Compound 0.1 µM
  viability, T/C: 76.6% and 104%
Compound 0.316 µM
  viability, T/C: 97.1% and 112%
Compound 1 µM
  viability, T/C: 156% and 101%
Curve of compound
  IC50: > 1000 nM

## C#Cc1c(F)ccc2cc(O)cc(-c3ncc4c(N5CC6CCC(C5)N6)nc(OCC56CCCN5CC(F)C6)nc4c3F)c12 (centres undefined) + CN1CCN(c2cc(C(=O)Nc3cc4cc(-c5cnn(C)c5)ccc4cn3)ccn2)CC1
Curve of first compound, second compound 0.0316 µM
  IC50: 8540 nM
Curve of first compound, second compound 0.1 µM
  IC50: 1410 nM
Curve of first compound, second compound 0.316 µM
  IC50: < 31.6 nM
Curve of first compound, second compound 1 µM
  IC50: < 31.6 nM
Curve of first compound, second compound 3.16 µM
  IC50: < 31.6 nM
Curve of first compound, second compound 10 µM
  IC50: < 31.6 nM
Second compound 0.0316 µM, first compound 0.0316 µM
  viability, T/C: 98.2%
Second compound 0.0316 µM, first compound 0.1 µM
  viability, T/C: 85.1%
Second compound 0.0316 µM, first compound 0.316 µM
  viability, T/C: 76.3%
Second compound 0.0316 µM, first compound 1 µM
  viability, T/C: 73%
Second compound 0.0316 µM, first compound 3.16 µM
  viability, T/C: 49.8%
Second compound 0.0316 µM, first compound 10 µM
  viability, T/C: 51.2%
Second compound 0.1 µM, first compound 0.0316 µM
  viability, T/C: 69.2%
Second compound 0.1 µM, first compound 0.1 µM
  viability, T/C: 74.1%
Second compound 0.1 µM, first compound 0.316 µM
  viability, T/C: 68.8%
Second compound 0.1 µM, first compound 1 µM
  viability, T/C: 51.2%
Second compound 0.1 µM, first compound 3.16 µM
  viability, T/C: 41.5%
Second compound 0.1 µM, first compound 10 µM
  viability, T/C: 54.2%
Second compound 0.316 µM, first compound 0.0316 µM
  viability, T/C: 21%
Second compound 0.316 µM, first compound 0.1 µM
  viability, T/C: 24%
Second compound 0.316 µM, first compound 0.316 µM
  viability, T/C: 17.3%
Second compound 0.316 µM, first compound 1 µM
  viability, T/C: 13%
Second compound 0.316 µM, first compound 3.16 µM
  viability, T/C: 15.5%
Second compound 0.316 µM, first compound 10 µM
  viability, T/C: 15.4%
Second compound 1 µM, first compound 0.0316 µM
  viability, T/C: 0.39%
Second compound 1 µM, first compound 0.1 µM
  viability, T/C: 0.42%
Second compound 1 µM, first compound 0.316 µM
  viability, T/C: 0.39%
Second compound 1 µM, first compound 1 µM
  viability, T/C: 0.91%
Second compound 1 µM, first compound 3.16 µM
  viability, T/C: 0.5%
Second compound 1 µM, first compound 10 µM
  viability, T/C: 1.33%
Second compound 3.16 µM, first compound 0.0316 µM
  viability, T/C: 0.37%
Second compound 3.16 µM, first compound 0.1 µM
  viability, T/C: 2.5%
Second compound 3.16 µM, first compound 0.316 µM
  viability, T/C: 0.31%
Second compound 3.16 µM, first compound 1 µM
  viability, T/C: 0.32%
Second compound 3.16 µM, first compound 3.16 µM
  viability, T/C: 0.26%
Second compound 3.16 µM, first compound 10 µM
  viability, T/C: 4.54%
Second compound 10 µM, first compound 0.0316 µM
  viability, T/C: 0.53%
Second compound 10 µM, first compound 0.1 µM
  viability, T/C: 1.9%
Second compound 10 µM, first compound 0.316 µM
  viability, T/C: 3.6%
Second compound 10 µM, first compound 1 µM
  viability, T/C: 0.18%
Second compound 10 µM, first compound 3.16 µM
  viability, T/C: 0.9%
Second compound 10 µM, first compound 10 µM
  viability, T/C: 6.16%
